system: HCT116 colorectal cancer cells; test: Cisplatin sensitization assay (96 h cell viability MTS); type: cell-based; conditions: compound and Cisplatin added simultaneously, Cisplatin sensitization value;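 note: Test-compound concentration that lowers the Cisplatin IC50 by a set fold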
Outline: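 Compound and cisplatin added together as a full matrix of 2-fold serial dilutions from a top final concentration of 10 μM; cells incubated 96 h at 37° C, 5% CO2. Viability then read by MTS after 1 h further incubation; sensitization value reported in μM bins.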

SMILES	Cisplatin Sensitization Assay
C[N+]1([O-])CCc2c(cncc2NC(=O)c2c(N)nn3cc(F)cnc23)C1 (stereo not drawn) [I-C-9, 5-(2-amino-6-fluoropyrazolo[1,5-a]pyrimidine-3-carboxamido)-2-methyl-1,2,3,4-tetrahydro-2,7-naphthyridine 2-oxide]	+ (Cisplatin sensitization value>0.2 μM but <5 μM)
CC(=O)N1CCC(c2ccncc2NC(=O)c2c(N)nn3cc(F)cnc23)CC1 [I-C-69, N-(4-(1-acetylpiperidin-4-yl)pyridin-3-yl)-2-amino-6-fluoropyrazolo[1,5-a]pyrimidine-3-carboxamide]	+++ (Cisplatin sensitization value of <0.02 μM)
CN1CCC(c2ccncc2NC(=O)c2c(N)nn3cc(F)cnc23)CC1=O (stereo not drawn) [I-C-73, 2-amino-6-fluoro-N-(4-(1-methyl-2-oxopiperidin-4-yl)pyridin-3-yl)pyrazolo[1,5-a]pyrimidine-3-carboxamide]	++ (Cisplatin sensitization value>0.02 μM but <0.2 μM)
CN(C)CCCNC(=O)C1CCN(c2c(F)cncc2NC(=O)c2c(N)nn3cc(F)cnc23)CC1 [I-G-26, 2-amino-N-(4-(4-((3-(dimethylamino)propyl)carbamoyl)piperidin-1-yl)-5-fluoropyridin-3-yl)-6-fluoropyrazolo[1,5-a]pyrimidine-3-carboxamide]	++ (Cisplatin sensitization value>0.02 μM but <0.2 μM)
CN1CCN(C(=O)N2CCN(c3c(F)cncc3NC(=O)c3c(N)nn4cc(F)cnc34)CC2)CC1 [I-N-140, 2-amino-6-fluoro-N-(5-fluoro-4-(4-(4-methylpiperazine-1-carbonyl)piperazin-1-yl)pyridin-3-yl)pyrazolo[1,5-a]pyrimidine-3-carboxamide]	+++ (Cisplatin sensitization value of <0.02 μM)
Nc1nn2cc(F)cnc2c1C(=O)Nc1cncc(F)c1N1CCC(C(=O)N2CCC(N3CCCC3)CC2)CC1 [I-G-59, 2-amino-6-fluoro-N-(5-fluoro-4-(4-(4-(pyrrolidin-1-yl)piperidine-1-carbonyl)piperidin-1-yl)pyridin-3-yl)pyrazolo[1,5-a]pyrimidine-3-carboxamide]	+++ (Cisplatin sensitization value of <0.02 μM)
Nc1nn2cc(F)cnc2c1C(=O)Nc1cnccc1OC1COC1 [I-O-92, 2-amino-6-fluoro-N-(4-(oxetan-3-yloxy)pyridin-3-yl)pyrazolo[1,5-a]pyrimidine-3-carboxamide]	+++ (Cisplatin sensitization value of <0.02 μM)
Nc1nn2cc(F)cnc2c1C(=O)Nc1cncc(F)c1C1=CCN(C2COC2)CC1 [I-C-12, 2-amino-6-fluoro-N-(5-fluoro-1′-(oxetan-3-yl)-1′,2′,3′,6′-tetrahydro-[4,4′-bipyridin]-3-yl)pyrazolo[1,5-a]pyrimidine-3-carboxamide]	+++ (Cisplatin sensitization value of <0.02 μM)
CC(C)(C#N)c1cnc2c(C(=O)Nc3cncc(F)c3N3CCN(C4COC4)CC3)c(N)nn2c1 [I-N-144]	+++ (Cisplatin sensitization value of <0.02 μM)
Nc1nn2cc(F)cnc2c1C(=O)Nc1cncc(Cl)c1N1CCNCC1 [I-N-126, 2-amino-N-(5-chloro-4-(piperazin-1-yl)pyridin-3-yl)-6-fluoropyrazolo[1,5-a]pyrimidine-3-carboxamide]	+++ (Cisplatin sensitization value of <0.02 μM)
N#CCc1cnc2c(C(=O)Nc3cnccc3OC3CCOCC3)c(N)nn2c1 [I-O-30, 2-amino-6-(cyanomethyl)-N-(4-((tetrahydro-2H-pyran-4-yl)oxy)pyridin-3-yl)pyrazolo[1,5-a]pyrimidine-3-carboxamide]	+++ (Cisplatin sensitization value of <0.02 μM)
Cc1cncc(NC(=O)c2c(N)nn3cc(Cl)cnc23)c1N1CCN(C)CC1 [I-N-57, 2-amino-6-chloro-N-(5-methyl-4-(4-methylpiperazin-1-yl)pyridin-3-yl)pyrazolo[1,5-a]pyrimidine-3-carboxamide]	+++ (Cisplatin sensitization value of <0.02 μM)
